Source: PubChem BioAssay (NCI)
Several values for one entry are separate records, joined by “and”; a condition that tells them apart may be missing. Equal entries are not always repeated.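 Protocol summary: plate cells (96-well), add compound at 5 concentrations, incubate 48 h, interpolate endpoints linearly. GI50 marks 50% less growth. At the TGI there is no net growth.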

Key:
Assay in all cases: growth of human tumour cells (NCI), 48 h
HCT-116 colon = system: HCT-116 colon
DLD-1 colon = system: DLD-1 colon
NCI-H226 lung = system: NCI-H226 lung
HOP-92 NSCLC = system: HOP-92 NSCLC
SK-MEL-28 melanoma = system: SK-MEL-28 melanoma
MALME-3M melanoma = system: MALME-3M melanoma
CAKI-1 renal = system: CAKI-1 renal
M19-MEL melanoma = system: M19-MEL melanoma
SK-MEL-5 melanoma = system: SK-MEL-5 melanoma
MCF7 breast = system: MCF7 breast

Row | SMILES | TGI (HCT-116 colon) | TGI (DLD-1 colon) [µM] | TGI (NCI-H226 lung) | TGI (HOP-92 NSCLC) | TGI (SK-MEL-28 melanoma) | TGI (MALME-3M melanoma) | TGI (CAKI-1 renal) | TGI (M19-MEL melanoma) [µM] | TGI (SK-MEL-5 melanoma) [µM] | GI50 (HCT-116 colon) [µM] | GI50 (CAKI-1 renal) [µM] | GI50 (NCI-H226 lung) [µM] | GI50 (HOP-92 NSCLC) [µM] | GI50 (MCF7 breast) [µM] | TGI (MCF7 breast) | GI50 (SK-MEL-28 melanoma) [µM] | GI50 (MALME-3M melanoma) [µM] | GI50 (DLD-1 colon) [µM] | GI50 (M19-MEL melanoma) [µM] | GI50 (SK-MEL-5 melanoma) [µM]
1 | CCCCCCCCCCCCOC(=S)NC | 30.8 µM | 34.3 | 15.2 µM | 31.5 µM | 44 µM | 39.6 µM |  |  |  |  |  |  |  |  |  |  |  |  |  | 
2 | CN(/C(=N\O)c1ccccc1)c1ccccc1 | > 100 µM | > 100 | 60 µM | 62.5 µM |  | 84.1 µM | > 100 µM | > 100 |  |  |  |  |  |  |  |  |  |  |  | 
3 | C[C@@]1(CBr)C[C@@](C)(/C=C/Cl)[C@@H](Cl)C[C@H]1Cl | 21.2 µM | 27.3 | 26.1 µM | 27.7 µM | 31.3 µM | 30.4 µM | 31.7 µM | 25.9 | 26.1 |  |  |  |  |  |  |  |  |  |  | 
4 | O/N=C1/C(=C/c2ccc(Cl)cc2)CCCC1C(NO)c1ccc(Cl)cc1 (centres undefined) | 67.1 µM | > 100 |  |  | 22.5 µM | 64.6 µM | 53.5 µM | 54.7 | 66.2 |  |  |  |  |  |  |  |  |  |  | 
5 | CCCCc1oc2ccccc2c1C(=O)c1cc(I)c(OCCN(CC)CC)c(I)c1 | 3.88 µM and 9.07 µM | 54.1 | 12.7 µM and 8.55 µM | 2.46 µM and 10.3 µM | 4 µM and 10.1 µM | 3.71 µM and 8.57 µM | 10.7 µM and 15.5 µM |  | 2.76 | 1.82 | 2.51 | 2.84 | 0.625 | 1.78 | 3.71 µM and 10.8 µM | 1.91 | 1.86 |  |  | 
6 | CCc1ccccc1NC(=O)C1=C(C)NC(C)=C(C(=O)Nc2ccccc2CC)C1c1ccc(NC(C)=O)cc1 | > 100 µM | 87.6 | > 100 µM | 90.6 µM | 52.9 µM | > 100 µM | > 100 µM | > 100 | > 100 |  |  |  |  |  |  |  |  |  |  | 
7 | CCC[CH2][Sn]1([CH2]CCC)[O]CC([CH2][Sn]([c]2ccccc2)([c]2ccccc2)[c]2ccccc2)[O]1 (centres undefined) |  | 18.4 | 38.8 µM | 25.7 µM | 20.2 µM | 26.4 µM |  | 21.2 |  |  |  | 20.7 | 11.9 |  |  | 5.95 | 13.6 | 5.92 | 8.82 | 
8 | CC(=O)OC1C/C(C)=C/[C@H](O)CC(C)/C=C/[C@@]2(C)CCC(C(C)(C)O)C12 (some centres undefined) | > 100 µM | > 100 | > 100 µM | > 100 µM | > 100 µM | > 100 µM | > 100 µM | > 100 | > 100 |  |  |  |  |  |  |  |  |  |  | 
9 | COc1cc(CCC(=O)NS(=O)(=O)c2ccccc2)cc(OC)c1OC | > 100 µM | > 100 | > 100 µM | > 100 µM | > 100 µM | > 100 µM | > 100 µM |  |  |  |  |  |  |  |  |  |  |  |  | 
10 | CN(C(=O)C1CC1)C1C2CN3CCC(O2)C13 (centres undefined) | > 100 µM | > 100 | > 100 µM | > 100 µM | > 100 µM | > 100 µM | > 100 µM | > 100 | > 100 |  |  |  |  |  |  |  |  |  |  | 
11 | COc1cc2c(cc1-c1c(C)noc1C)ncc1[nH]c(=O)n([C@H](C)c3ccccn3)c12 | > 100 µM |  | > 100 µM | 37.3 µM | > 90.7 µM | 76.2 µM | > 100 µM |  | > 44 | 1.94 | 0.0939 | 12.1 | 0.0677 | 0.195 | > 100 µM | 0.695 | 1.05 |  |  | 2.77
12 | Cc1cc(S(=O)(=O)Nc2nc3ccsc3c(=O)n2Cc2ccccc2)c(S)cc1Cl | 37.7 µM |  | 93.6 µM | > 100 µM | 57.2 µM | 50.1 µM | > 100 µM |  | 34.2 | 19.2 | 41.2 | 34.5 | 87.6 | 34.4 | > 100 µM | 25 | 21.2 |  |  | 12.5
13 | CC(=O)[CH-]C(=O)c1ccccc1.CC(=O)[CH-]C(=O)c1ccccc1.CC[O-].O=C1C=C([O-])C(=O)c2ccccc21.[Ti+4] | > 100 µM | > 100 | > 100 µM | 82.8 µM | > 100 µM | > 100 µM | > 100 µM |  | > 100 | 62.5 | > 100 | 76 | 26.2 |  |  | > 100 | 34.8 | > 100 |  | 14
14 | COC(=O)C1CCC(N2C(=O)CCC2C(=O)OC)=N1 (centres undefined) | > 100 µM | > 100 | > 100 µM | > 100 µM | > 100 µM | > 100 µM | > 100 µM | > 100 |  |  |  |  |  |  |  |  |  |  |  | 
15 | CC(=O)Oc1cc(OC(C)=O)c2cc3c(cc2c1OC(C)=O)C(=O)C1(CCCC1)C3=O |  | 37 |  | 28.6 µM | 31.7 µM | 33.6 µM | 25.2 µM | 32 |  |  |  |  |  |  |  |  |  |  |  | 
16 | CCCCCCCCCCCCCCCCCCOCC1(COP(=O)([O-])OCC[N+](C)(C)C)CCCO1 (centres undefined) | 22 µM | 12.5 | 20.1 µM | 6.09 µM | 32.2 µM | 26.2 µM |  | 10.8 | 27.7 |  |  |  |  |  |  |  |  |  |  | 
17 | O=C(O)C1=C(Cl)c2ccccc2S1(=O)=O |  | > 100 |  | > 100 µM | > 100 µM | > 100 µM | > 100 µM | > 100 | > 100 |  |  |  |  |  |  |  |  |  |  | 
18 | CC(=O)[CH-]C(=O)c1ccccc1.CC(=O)[CH-]C(=O)c1ccccc1.CC12CC3(C)CC(C)(C1)CC([O-])(C2)C3.CC[O-].[Ti+4] | 50.6 µM | 78.6 |  | 55.3 µM | 38.2 µM | 47 µM | > 100 µM |  | 64.4 | 18.8 | 42.9 |  | 19.1 |  |  | 17 | 17.5 | 17 |  | 30.8
19 | C#CCOc1cccc(Nc2ncnc3c2ncn3C2CCN(C(=O)CCl)C2)c1 (centres undefined) | 59.8 µM |  | > 100 µM | 39.6 µM | 53.9 µM | 28.1 µM | 30.7 µM |  | 34.2 | 22.7 | 16.8 | 29.5 | 19.1 | 18.7 | 41.4 µM | 23 | 12.3 |  |  | 17.2
20 | OCCCCC#Cc1ccccc1C#Cc1cccs1 | 31.4 µM |  | 43.6 µM | 28.7 µM | 31.1 µM | 55.4 µM | 28.3 µM |  | 26 | 15.2 | 14.6 | 18.9 | 14.1 | 1.88 | 29.1 µM | 15.8 | 22.8 |  |  | 13.3
